Tests used:
[1] = tested on: Septoria tritici; experiment: Test F: wheat leaf blotch, preventive spray on wheat seedlings, visual disease rating; assay type: in vivo; conditions: preventive spray, 100 = 100% disease control, rating without asterisk
Excerpt: (§1) A hyphen (-) indicates no test results.

[2] = tested on: Botrytis cinerea; experiment: Test A: tomato Botrytis, preventive spray on tomato seedlings, visual disease rating; conditions: tomato Botrytis, preventive spray; 100 = 100% disease control, 0 = no control relative to controls; rating without asterisk
[3] = tested on: Puccinia recondita f. sp. tritici; experiment: Test H: wheat leaf rust, preventive spray on wheat seedlings, visual disease rating; conditions: wheat leaf rust, preventive spray; 100 = 100% disease control; rating without asterisk
[4] = tested on: Alternaria solani; experiment: Test B: tomato early blight, preventive spray on tomato seedlings, visual disease rating; conditions: tomato early blight, preventive spray; 100 = 100% disease control; rating without asterisk
[5] = tested on: Septoria nodorum; experiment: Test E: Septoria glume blotch, preventive spray on wheat seedlings, visual disease rating; conditions: Septoria glume blotch on wheat, preventive spray; 100 = 100% disease control; rating without asterisk
[6] = tested on: Blumeria graminis f. sp. tritici; experiment: Test I: wheat powdery mildew, preventive spray on wheat seedlings, visual disease rating; conditions: wheat powdery mildew, preventive spray; 100 = 100% disease control; rating without asterisk
[7] = tested on: Puccinia recondita f. sp. tritici; experiment: Test G: wheat leaf rust, spray after inoculation (curative) on wheat seedlings, visual disease rating; assay type: in vivo; conditions: spray after inoculation, 100 = 100% disease control, rating without asterisk
Excerpt: as §1

Row | Structure (SMILES) | Test F rating (% disease control) [1] | Test A rating (% disease control) [2] | Test H rating (% disease control) [3] | Test B rating (% disease control) [4] | Test E rating (% disease control) [5] | Test I rating (% disease control) [6] | Test G rating (% disease control) [7]
1 | Cc1nn(C)c(Nc2c(F)cc(F)cc2I)c1-c1ccc(F)cc1Cl [compound 213] | 100% | 100% | 100% | 100% | 100% | 100% | 100%
2 | Cc1nn(C)c(Nc2c(F)cc(F)cc2I)c1-c1ccc(F)cc1F [compound 214] | 100% | 100% | 99% | 100% | 99% | 100% | 99%
3 | Cc1nn(C)c(Nc2c(F)cc(F)cc2I)c1-c1ccc(F)cc1Br [compound 215] | 100% | 100% | 100% | 100% | 99% | 100% | 100%
4 | Cc1nn(C)c(Nc2c(F)cc(I)cc2F)c1-c1ccc(F)cc1F [compound 216] | 100% | 100% | 95% | 0% | 60% | 99% | 18%
5 | Cc1nn(C)c(Nc2c(F)cc(I)cc2F)c1-c1ccc(F)cc1Cl [compound 217] | 100% | 100% | 99% | 58% | 86% | 99% | 41%
6 | Cc1nn(C)c(Nc2c(F)cc(I)cc2F)c1-c1ccc(F)cc1Br [compound 218] | 100% | 100% | 99% | 68% | 86% | 99% | 0%
7 | COc1ccc(-c2c(C)nn(C)c2Nc2c(F)cc(F)cc2I)c(Cl)c1 [compound 219] | 100% | 100% | 100% | 100% | 100% | 99% | 99%
8 | COc1ccc(-c2c(C)nn(C)c2Nc2c(F)cc(I)cc2F)c(Cl)c1 [compound 220] | 100% | 100% | 97% | 69% | 73% | 96% | 0%
9 | COc1ccc(-c2c(C)nn(C)c2Nc2c(F)cc(F)cc2Br)c(Cl)c1 [compound 221] | 100% | 100% | 99% | 100% | 97% | 100% | 73%
10 | Cc1nn(C)c(Nc2c(F)cc(Cl)cc2Cl)c1-c1ccc(F)cc1I [compound 222] | 100% | 98% | 90% | 77% | 0% | 96% | 0%
11 | Cc1nn(C)c(Nc2c(F)cc(Br)cc2Br)c1-c1ccc(F)cc1I [compound 223] | 100% | 98% | 97% | 88% | 0% | 99% | 0%

— patent publication US20170150719A1, “FUNGICIDAL PYRAZOLES AND THEIR MIXTURES” (E I DU PONT DE NEMOURS AND COMPANY, priority 2010, published 2017)
